Data set [1] deals with T1, bovine serum albumin (BSA) (Bos taurus, UniProt P02769).
T1 construct: purchased
Put plainly: Albumin binding by tryptophan fluorescence emission quenching. The settings on record: for K(BSA), BSA-binding constant / kq(BSA), BSA-quenching constant: BSA 3 μM; for K(BSA), BSA-binding constant: buffer pH 7.0, Scatchard equation; for kq(BSA), BSA-quenching constant: buffer pH 7.0, λexc 295 nm, Stern–Volmer, τ0 = 10^–8 s; for BSA fluorescence, % of the initial fluorescence intensity (I/Io): λem,max = 342 nm, final value of titration (Figure S11). On the procedure: (§1) Serum albumins (Sas) are the most abundant serum proteins and play a role in the circulatory system, primarily in the transport of drugs and other bioactive small molecules through the bloodstream.
(§2) The SA-quenching constants (kq) for the compounds (Table 5) were calculated with the Stern–Volmer quenching equation (Equations (S2) and (S3)).
(§3) Albumin-binding constants (K) were calculated using the Scatchard equation (Equation (S4)). […]
(§4) S2. Interaction with serum albumins
(§5) The albumin–binding study for the compounds was carried out b y fluorescence emission

The target of data set [2] is T2, human serum albumin (HSA) (Homo sapiens, UniProt P02768).
T2 construct: purchased
T2 sequence (P02768 25-609): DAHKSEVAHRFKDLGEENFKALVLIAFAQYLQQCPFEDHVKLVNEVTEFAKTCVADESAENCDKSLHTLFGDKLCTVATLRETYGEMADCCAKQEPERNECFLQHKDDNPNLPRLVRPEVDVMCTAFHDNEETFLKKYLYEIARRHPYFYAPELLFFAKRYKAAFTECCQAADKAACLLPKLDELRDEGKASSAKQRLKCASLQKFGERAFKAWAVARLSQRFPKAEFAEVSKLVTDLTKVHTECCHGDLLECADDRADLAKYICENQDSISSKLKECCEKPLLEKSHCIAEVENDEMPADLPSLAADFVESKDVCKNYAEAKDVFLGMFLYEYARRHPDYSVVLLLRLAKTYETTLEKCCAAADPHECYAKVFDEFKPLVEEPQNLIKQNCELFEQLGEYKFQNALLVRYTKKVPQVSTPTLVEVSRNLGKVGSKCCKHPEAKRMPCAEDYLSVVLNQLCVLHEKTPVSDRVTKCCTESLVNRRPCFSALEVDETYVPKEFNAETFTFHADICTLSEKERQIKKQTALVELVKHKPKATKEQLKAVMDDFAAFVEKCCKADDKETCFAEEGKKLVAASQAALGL
Described as above. The settings on record: for K(HSA), HSA-binding constant / kq(HSA), HSA-quenching constant: HSA 3 μM; for K(HSA), HSA-binding constant: buffer pH 7.0, Scatchard equation; for kq(HSA), HSA-quenching constant: buffer pH 7.0, λexc 295 nm, Stern–Volmer, τ0 = 10^–8 s; for HSA fluorescence, % of the initial fluorescence intensity (I/Io): λem,max = 351 nm, final value of titration (Figure S10). The procedure:
as §1, §2, §3, §4, §5

Data set [3] relates to CT DNA. The data set is described as follows: Study of the DNA-interaction by cyclic voltammetry. The settings on record: for Epa(f), anodic potential / Epc(f), cathodic potential / Epa(b), anodic potential / Epc(b), cathodic potential: M(II)/M(I), 1:2 DMSO/buffer; for Epa(f), anodic potential / Epc(f), cathodic potential: absence of CT DNA; for Epa(b), anodic potential / Epc(b), cathodic potential: presence of CT DNA; for Kr/Kox, ratio of equilibrium DNA-binding constants (reduced/oxidized form): eq. S6. Format: binding, calf. On the procedure: Cyclic voltammetry was used to study the interaction of the complexes with CT DNA. An intercalative interaction will induce a positive shift for the electrochemical potential(s) of metal oxidation/reduction, whereas, in the case of electrostatic interaction, a negative shift in the potential(s) may occur. The cyclic voltammograms of the complexes in a 1:2 DMSO:buffer solution (0.33 mM) were recorded in the absence and presence of the CT DNA solution (Figure S13). The predominant electrochemical feature for all complexes is a positive shift in the potential in the presence of CT DNA (ΔEpc/a = (–30)–(+127) mV). Consequently, the intercalative nature of the interaction of the complexes with DNA can be inferred from the presented data.
In order to evaluate further the redox behavior of the complexes, the corresponding equilibrium constants were calculated by determining the ratio Kr/Kox in accordance to Equation (S6), where Kox and Kr are the DNA-binding constants for the oxidized and reduced form, respectively, of the metal ions. For all complexes, the Kr/Kox ratio is close to or above 1 (Table 7), showing the selective binding of DNA to the […] form of the complexes. […]
S3.3 Study of the DNA –interaction by cyclic vol ta mmetry
Cyclic voltammetr y can be also used in order to calculate the corresponding equilibrium constant for the redox process. The ratio of the DNA–binding constants for the reduced (K r) and oxidized forms (Kox) of t he complex es (Kr/Kox) w as calculat ed according t o eq. S6:
Δ = = 0.059 × lo gEE E K oxoo o (eq. S6) […]
where Eo and Eo are the formal potentials of M(II)/M(I) redox couple in the fully bound and […]
free complexes, respectivel y. Kox and Kr are the binding constants for the binding of the oxidized and reduced species to DNA, respectivel y [S8] . […]

T1 sequence (P02769 25-607): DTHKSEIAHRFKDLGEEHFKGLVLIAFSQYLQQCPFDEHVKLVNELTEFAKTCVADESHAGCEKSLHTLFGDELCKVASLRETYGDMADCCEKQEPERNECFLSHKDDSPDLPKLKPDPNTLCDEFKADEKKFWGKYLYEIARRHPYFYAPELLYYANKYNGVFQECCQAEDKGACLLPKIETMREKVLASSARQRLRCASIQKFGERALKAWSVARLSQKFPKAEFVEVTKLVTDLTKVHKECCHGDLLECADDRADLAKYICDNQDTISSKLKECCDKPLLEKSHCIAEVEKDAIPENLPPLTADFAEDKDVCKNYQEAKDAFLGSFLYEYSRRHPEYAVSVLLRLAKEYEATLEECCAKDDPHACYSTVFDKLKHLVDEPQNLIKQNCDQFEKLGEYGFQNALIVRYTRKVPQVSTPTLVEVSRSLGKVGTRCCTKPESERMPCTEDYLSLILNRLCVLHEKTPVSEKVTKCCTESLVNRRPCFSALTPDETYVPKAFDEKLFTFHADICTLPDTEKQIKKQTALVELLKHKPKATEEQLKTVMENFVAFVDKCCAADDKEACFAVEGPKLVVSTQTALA

`CN1CCN(c2c(F)cc3c(=O)c(C(=O)[O-])cn(CCF)c3c2F)CC1.CN1CCN(c2c(F)cc3c(=O)c(C(=O)[O-])cn(CCF)c3c2F)CC1.[Ni+2].c1ccc(Nc2ccccn2)nc1` [complex 18, [Ni(flrx)2(bipyam)]]: in data set [1], the “K(BSA), BSA-binding constant” value is listed as 4.77(±0.15) × 10^4 M^−1; the “kq(BSA), BSA-quenching constant” value is listed as 1.56(±0.07) × 10^13 M^−1s^−1; the “BSA fluorescence, % of the initial fluorescence intensity (I/Io)” value (from here on “BSA fluorescence, %”) is listed as 25.2%. In data set [2], the “K(HSA), HSA-binding constant” value is listed as 7.13(±0.17) × 10^4 M^−1; the “kq(HSA), HSA-quenching constant” value is 6.94(±0.10) × 10^12 M^−1s^−1; the “HSA fluorescence, % of the initial fluorescence intensity (I/Io)” value (“HSA fluorescence, %” below) was determined as 44.5%. For the same compound, in data set [3], the “Epa(f), anodic potential” value is recorded as −523 mV; the “Epc(f), cathodic potential” value is −695 mV; the “Epa(b), anodic potential” value is −512 mV; the “Epc(b), cathodic potential” value is −689 mV. Besides, the “Kr/Kox, ratio of equilibrium DNA-binding constants (reduced/oxidized form)” value (shortened to “Kr/Kox, ratio … (reduced/oxidized form)”) in data set [3] is 1.15.

On to `CN1CCN(c2c(F)cc3c(=O)c(C(=O)[O-])cn(CCF)c3c2F)CC1.CN1CCN(c2c(F)cc3c(=O)c(C(=O)[O-])cn(CCF)c3c2F)CC1.[Mn+2].c1ccc(Nc2ccccn2)nc1` [complex 10, [Mn(flrx)2(bipyam)]], for which, in data set [1], the “K(BSA), BSA-binding constant” value is listed as 6.46(±0.39) × 10^4 M^−1; the “kq(BSA), BSA-quenching constant” value is given as 1.20(±0.04) × 10^13 M^−1s^−1; the “BSA fluorescence, %” value is given as 31.6%. Further, in data set [2], the “K(HSA), HSA-binding constant” value is recorded as 8.40(±0.58) × 10^4 M^−1; the “kq(HSA), HSA-quenching constant” value is reported as 8.01(±0.23) × 10^12 M^−1s^−1; the “HSA fluorescence, %” value worked out at 47.4%. Further, in data set [3], the “Epa(f), anodic potential” value is listed as −495 mV; the “Epc(f), cathodic potential” value was −706 mV; the “Epa(b), anodic potential” value is recorded as −508 mV; the “Epc(b), cathodic potential” value is on record as −695 mV. In addition, the “Kr/Kox, ratio … (reduced/oxidized form)” value in data set [3] came to 0.98.

Regarding `CN1CCN(c2c(F)cc3c(=O)c(C(=O)[O-])cn(CCF)c3c2F)CC1.CN1CCN(c2c(F)cc3c(=O)c(C(=O)[O-])cn(CCF)c3c2F)CC1.CO.CO.[Co+2]` [complex 4, [Co(flrx)2(MeOH)2]], in data set [1], the “K(BSA), BSA-binding constant” value is on record as 1.02(±0.05) × 10^5 M^−1; the “kq(BSA), BSA-quenching constant” value is 1.34(±0.03) × 10^13 M^−1s^−1; the “BSA fluorescence, %” value is 26.3%. In data set [2], the “K(HSA), HSA-binding constant” value was 7.68(±0.33) × 10^4 M^−1; the “kq(HSA), HSA-quenching constant” value is recorded as 6.05(±0.13) × 10^12 M^−1s^−1; the “HSA fluorescence, %” value amounted to 44.3%. Further, in data set [3], the “Epa(f), anodic potential” value is −483 mV; the “Epc(f), cathodic potential” value was −724 mV; the “Epa(b), anodic potential” value is reported as −455 mV; the “Epc(b), cathodic potential” value is −735 mV. For the same compound, the “Kr/Kox, ratio … (reduced/oxidized form)” value in data set [3] was found to be 1.15.

Regarding `CN1CCN(c2c(F)cc3c(=O)c(C(=O)[O-])cn(CCF)c3c2F)CC1.CN1CCN(c2c(F)cc3c(=O)c(C(=O)[O-])cn(CCF)c3c2F)CC1.O.O.[Mn+2]` [complex 2, [Mn(flrx)2(H2O)2]], in data set [1], the “K(BSA), BSA-binding constant” value is given as 1.45(±0.04) × 10^5 M^−1; the “kq(BSA), BSA-quenching constant” value is listed as 3.45(±0.16) × 10^13 M^−1s^−1; the “BSA fluorescence, %” value worked out at 11.1%. Besides, in data set [2], the “K(HSA), HSA-binding constant” value is recorded as 9.58(±0.39) × 10^4 M^−1; the “kq(HSA), HSA-quenching constant” value was 1.42(±0.04) × 10^13 M^−1s^−1; the “HSA fluorescence, %” value is given as 28.5%. Also, in data set [3], the “Epa(f), anodic potential” value is given as −455 mV; the “Epc(f), cathodic potential” value is listed as −684 mV; the “Epa(b), anodic potential” value is −466 mV; the “Epc(b), cathodic potential” value was −678 mV. Further, the “Kr/Kox, ratio … (reduced/oxidized form)” value in data set [3] worked out at 0.96.

In the case of `CN1CCN(c2c(F)cc3c(=O)c(C(=O)[O-])cn(CCF)c3c2F)CC1.CN1CCN(c2c(F)cc3c(=O)c(C(=O)[O-])cn(CCF)c3c2F)CC1.[Cu+2]` [complex 1, [Cu(flrx)2]], in data set [1], the “K(BSA), BSA-binding constant” value is recorded as 7.19(±0.21) × 10^4 M^−1; the “kq(BSA), BSA-quenching constant” value is given as 1.87(±0.09) × 10^13 M^−1s^−1; the “BSA fluorescence, %” value is 17.3%. Further, in data set [2], the “K(HSA), HSA-binding constant” value is on record as 8.39(±0.27) × 10^4 M^−1; the “kq(HSA), HSA-quenching constant” value is reported as 1.09(±0.08) × 10^13 M^−1s^−1; the “HSA fluorescence, %” value stood at 33.3%. For the same compound, in data set [3], the “Epa(f), anodic potential” value is −504 mV; the “Epc(f), cathodic potential” value is reported as −725 mV; the “Epa(b), anodic potential” value is given as −462 mV; the “Epc(b), cathodic potential” value is recorded as −735 mV. Besides, the “Kr/Kox, ratio … (reduced/oxidized form)” value in data set [3] is 1.31.

For `CN1CCN(c2c(F)cc3c(=O)c(C(=O)[O-])cn(CCF)c3c2F)CC1.[Cl-].[Cu+2].c1ccc(Nc2ccccn2)nc1` [complex 7, [Cu(flrx)(bipyam)Cl]], in data set [1], the “K(BSA), BSA-binding constant” value is on record as 1.26(±0.05)×10^5 M^−1; the “kq(BSA), BSA-quenching constant” value was 1.56(±0.04) × 10^13 M^−1s^−1; the “BSA fluorescence, %” value is 26.6%. In addition, in data set [2], the “K(HSA), HSA-binding constant” value is on record as 1.31(±0.05) × 10^5 M^−1; the “kq(HSA), HSA-quenching constant” value is recorded as 5.57(±0.18) × 10^12 M^−1s^−1; the “HSA fluorescence, %” value amounted to 49.3%. Further, in data set [3], the “Epa(f), anodic potential” value is recorded as −426 mV; the “Epc(f), cathodic potential” value is reported as −729 mV; the “Epa(b), anodic potential” value is given as −300 mV; the “Epc(b), cathodic potential” value is recorded as −710 mV. The “Kr/Kox, ratio … (reduced/oxidized form)” value in data set [3] is 3.41.

For the compound `CN1CCN(c2c(F)cc3c(=O)c(C(=O)[O-])cn(CCF)c3c2F)CC1.CN1CCN(c2c(F)cc3c(=O)c(C(=O)[O-])cn(CCF)c3c2F)CC1.[Co+2].c1ccc(Nc2ccccn2)nc1` [complex 16, [Co(flrx)2(bipyam)]], in data set [1], the “K(BSA), BSA-binding constant” value is reported as 1.44(±0.04) × 10^5 M^−1; the “kq(BSA), BSA-quenching constant” value is listed as 1.98(±0.05) × 10^13 M^−1s^−1; the “BSA fluorescence, %” value came to 22.2%. In data set [2], the “K(HSA), HSA-binding constant” value is listed as 9.61(±0.36) × 10^4 M^−1; the “kq(HSA), HSA-quenching constant” value is given as 9.35(±0.22) × 10^12 M^−1s^−1; the “HSA fluorescence, %” value is recorded as 36.1%. Further, in data set [3], the “Epa(f), anodic potential” value was −466 mV; the “Epc(f), cathodic potential” value is listed as −729 mV; the “Epa(b), anodic potential” value was −445 mV; the “Epc(b), cathodic potential” value is given as −741 mV. The “Kr/Kox, ratio … (reduced/oxidized form)” value in data set [3] worked out at 1.08.

In the case of `CN1CCN(c2c(F)cc3c(=O)c(C(=O)[O-])cn(CCF)c3c2F)CC1.CN1CCN(c2c(F)cc3c(=O)c(C(=O)[O-])cn(CCF)c3c2F)CC1.[Ni+2].c1cnc2c(c1)ccc1cccnc12` [complex 19, [Ni(flrx)2(phen)]], in data set [1], the “K(BSA), BSA-binding constant” value was 8.01(±0.28) × 10^4 M^−1; the “kq(BSA), BSA-quenching constant” value is 1.39(±0.04) × 10^13 M^−1s^−1; the “BSA fluorescence, %” value was 25.6%. Further, in data set [2], the “K(HSA), HSA-binding constant” value is recorded as 6.65(±0.15) × 10^4 M^−1; the “kq(HSA), HSA-quenching constant” value is on record as 6.67(±0.18) × 10^12 M^−1s^−1; the “HSA fluorescence, %” value was 43.9%. Moreover, in data set [3], the “Epa(f), anodic potential” value is reported as −489 mV; the “Epc(f), cathodic potential” value was −706 mV; the “Epa(b), anodic potential” value was −460 mV; the “Epc(b), cathodic potential” value is listed as −718 mV. Besides, in data set [3], the “Kr/Kox, ratio … (reduced/oxidized form)” value came out at 1.15.
